Reference: patent US20130064815A1, “INDUCING APOPTOSIS IN QUIESCENT CELLS” (THE TRUSTEES OF PRINCETON UNIVERSITY, priority 2011, published 2013)

Experiments:
[1] = tested on: four day serum starved fibroblasts; assay: induction of apoptosis in quiescent fibroblasts by DHEA and/or autophagy inhibitor combined with proteasome inhibitors; assay type: cell-based, human; details: DHEA alone; 48 hour treatment
Protocol: Referring to FIG. 17, the effect of treatment using DHEA and/or an autophagy inhibitor combined with proteasome inhibitors on apoptosis in quiescent cells was analyzed.
In this experiment, the proteasome inhibitor, bortezomib, was used in varying concentrations with DHEA during a 48 hour treatment.

colon cancer = details: in vivo; cited from earlier work
[2] = tested on: low-grade cervical lesions; details: 12 women with low-grade dysplasia; intravaginal; cited from earlier work
G6PD = target: T1, G6PD (Homo sapiens, UniProt P11413); assay: G6PD activity in fibroblasts treated with DHEA; assay type: cell-based
T1 construct: endogenous in cells; host or cells: primary human foreskin fibroblasts (proliferating or serum-starved)
Text: Referring to FIGS. 18A and 18B, NADPH production is induced in quiescent fibroblasts. G6PD, PGD and IDH1 are expressed at low levels in proliferating fibroblasts, at higher levels in 7 dCI, 14 dCI and 14 dCI7 dSS fibroblasts, and at even higher levels in 4 dSS and 7 dSS fibroblasts (FIGS. 18A and 18B). Malic enzyme, another protein that generates NADPH but was not predicted to be differentially active in proliferating versus quiescent fibroblasts, was expressed at similar levels in cells in all conditions. The activity of the NADPH-producing enzymes in cytosolic or mitochondrial lysates collected from cells in different proliferative conditions is shown in FIG. 18A. Immunoblotting confirmed successful separation of mitochondrial and cytosolic proteins. Lysates were incubated with the appropriate substrate and the rate of enzymatic activity was determined based on the appearance or disappearance of NADH or NADPH. G6PD had the highest specific activity among the enzymes monitored, consistent with previous reports that it is the most important contributor to NAPDH levels. […] Thus NADPH-generating enzymes in the pentose-phosphate pathway are activated in serum-starved fibroblasts. […]

[3] = tested on: extracellular glutathione; assay: glutathione in conditioned medium by mass spectrometry; assay type: cell-based, human; details: 7 dSS fibroblasts; DHEA vs DMSO control
Text: It was expected that the reduction in NADPH levels that resulted from DHEA treatment would result in lower activity of glutathione reductase and thus a decrease in the levels of reduced glutathione. […] The depletion of glutathione in response to DHEA could be an important part of the apoptotic pathway. Alternatively, because apoptosing cells can rapidly and selectively release glutathione to the extracellular environment (van den Dobbelsteen et al., 1996, “Rapid and specific efflux of reduced glutathione during apoptosis induced by anti-Fas/APO-1 antibody,” J Biol Chem 271, 15240-15427; Franco et al., “Glutathione depletion is necessary for apoptosis in lymphoid cells independent of reactive oxygen species,” J Biol Chem 282, 30452-30465, 2007, which are incorporated herein by reference as if fully set forth), the depletion of glutathione could represent a response to a distinct apoptotic trigger. Mass spectrometry was used to measure glutathione levels in conditioned medium from 7 dSS fibroblasts treated with DMSO as a control or with DHEA. There was no increase in extracellular glutathione in conditioned medium from DHEA-treated fibroblasts compared with controls; in fact, levels were lower, consistent with a DHEA-induced reduction in intracellular levels of reduced glutathione. […]

P and CI14 fibroblasts = assay: PPP inhibition and PI live/dead analysis by flow cytometry; assay type: cell-based, human; details: CI14 vs proliferating fibroblasts; 100 μM and 250 μM, four days; p<0.01
Protocol: The function of the PPP in quiescent and proliferating fibroblasts was tested. Proliferating or CI14 fibroblasts were incubated with DHEA, a small molecule inhibitor of the PPP for four days. The fraction of cells that were dead was monitored with propidium iodide (PI) labeling followed by flow cytometry.
PPP inhibition and PI live/dead analysis: P and CI14 fibroblasts were treated with dehydroepiandrosterone dissolved in ethanol or dimethylsufoxide (0.1% vol/vol) for four days. On the fourth day of treatment with the inhibitor, cells were trypsinized and collected into conditioned media. Cells were then centrifuged for 5 min at 1000 rpm. The supernatant was aspirated and cells were taken up in PBS with 1 μg/ml PI (VWR, West Chester, Pa.). Cells were kept on ice and immediately analyzed by flow cytometry using a BD LSRII multi-laser analyzer (BD Biosciences, San Jose, Calif.). PI was excited at 488 nm and emitted fluorescence was collected through a 610/20 bandpass filter. At least 40,000 cells were collected and analyzed with FACSDiVa software (BD Biosciences, San Jose, Calif.). PI negative cells were counted as live cells and PI positive cells were counted as dead cells.

T1 sequence (P11413 whole entry): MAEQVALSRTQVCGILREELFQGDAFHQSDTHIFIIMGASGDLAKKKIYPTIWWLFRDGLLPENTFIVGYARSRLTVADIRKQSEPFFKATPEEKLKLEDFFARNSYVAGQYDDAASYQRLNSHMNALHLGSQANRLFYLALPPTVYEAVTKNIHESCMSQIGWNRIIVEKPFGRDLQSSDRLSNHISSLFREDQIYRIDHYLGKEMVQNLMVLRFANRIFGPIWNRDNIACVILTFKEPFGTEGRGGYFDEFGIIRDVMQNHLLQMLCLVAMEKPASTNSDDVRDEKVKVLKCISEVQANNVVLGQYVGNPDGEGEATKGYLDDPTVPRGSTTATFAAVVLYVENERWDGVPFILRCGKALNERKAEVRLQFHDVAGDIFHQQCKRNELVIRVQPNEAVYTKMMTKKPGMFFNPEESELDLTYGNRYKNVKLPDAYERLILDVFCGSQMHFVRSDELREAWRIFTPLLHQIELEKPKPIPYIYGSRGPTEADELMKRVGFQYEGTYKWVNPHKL

C[C@]12CC[C@H](O)CC1=CC[C@@H]1[C@@H]2CC[C@]2(C)C(=O)CC[C@@H]12 [DHEA, dehydroepiandrosterone]
increase in apoptosis induction [1]: ~2 fold | effect on colon cancer (colon cancer): chemopreventative effect | regression of low-grade cervical lesions [2]: may promote regression of low-grade cervical lesions | safety [2]: safe to administer | G6PD activity (G6PD; proliferating cells treated with DHEA): declined | G6PD activity (G6PD; serum-starved fibroblasts treated with DHEA): significantly declined | extracellular glutathione in conditioned medium [3]: no increase | cell death (PI labeling) (P and CI14 fibroblasts): statistically significant increase in cell death
